A short description of the first data set: physchem. The format is physicochemical.
Settings: not given
Here is the method: Measurement of Log P values as provided herein was performed according to EEC directive 79/831 Annex V.A8 by HPLC (High Performance Liquid Chromatography) on reversed phase columns with the following methods: • ^[a]
If more than one Log P value is available within the same method, all the values are given and separated by “+”.
Lambda-max-values were determined using UV-spectra from 200 nm to 400 nm and the peak values of the chromatographic signals
For the compound `FC(F)(F)c1cccc(Oc2cnc(Cl)cc2C2=NOCC(Cc3ccc(C(F)(F)F)cc3Cl)N2)c1` (racemic) [Compound I-105], the LogP was 4.84^[a]. Regarding `Cc1ccc(CC2CON=C(c3cc(C4CC4)ncc3Oc3cccc(C4CC4)c3)N2)c(C)c1` (racemic) [Compound I-016], the LogP was 4.87^[a]. Same read-out and setting: to `Cc1ccc(CC2CON=C(c3cc(Cl)ncc3Oc3cccc(Cl)c3)N2)c(Cl)c1` (racemic) [Compound I-103] belongs 4.66^[a]; to `FC1ON=C(c2cc(Cl)ncc2Oc2cccc(C(F)(F)F)c2)NC1c1ccc(Cl)cc1` (mixture of isomers) [Compound I-051], 3.33^[a]; to `Cc1ccc(CC2CON=C(c3cc(Cl)nc(F)c3Oc3cccc(C(F)(F)F)c3)N2)c(C)c1` (racemic) [Compound I-082], 4.97^[a].

Turning to `Cc1ccc(CC2CON=C(c3cc(C#C[Si](C)(C)C)ncc3Oc3cccc(C(F)(F)F)c3)N2)cc1` (racemic) [Compound I-060], the LogP was 5.53^[a]. Still for that read-out and setting: to `Cc1ccc(CC(CON)NC(=O)c2cc(Cl)ncc2Oc2cccc(C(F)F)c2)c(C)c1` (stereo not shown) [4-11] belongs 3.09^[a]. Same read-out and setting: to `NOCC(Cc1ccc(Br)cc1Cl)NC(=O)c1cc(Cl)ncc1Oc1cccc(C2CC2)c1` (stereo not shown) [4-02] belongs 4.15^[a]; to `Cc1cc(Br)ccc1CC(CCl)NC(=O)c1cc(Cl)ncc1Oc1cccc(C(F)(F)F)c1` (stereo not shown) [14-08], 5.31^[a]; to `FC(F)(F)c1cncc(Oc2cnc(Cl)cc2C2=NOCC(Cc3ccc(Cl)cc3Cl)N2)c1` (racemic) [Compound I-125], 3.71^[a]. The same measure, in the same setting: in the case of `Cc1ccc(C(CCl)NC(=O)c2cc(Cl)ncc2Oc2cccc(C(F)(F)F)c2)cc1` (stereo not shown) [14-12] it was 4.49^[a]; in that of `Fc1c(Oc2cnc(Cl)cc2C2=NOCC(Cc3ccc(Cl)cc3Cl)N2)cccc1OC(F)(F)F` (stereo not shown) [Compound I-149], 4.88^[a].

Take `Cc1ccc(CC(CON2C(=O)c3ccccc3C2=O)NC(=O)c2cc(Cl)ncc2Oc2cccc(C3CC3)c2F)c(C)c1` (stereo not shown) [3-06]: the LogP is 5.38^[a].

With `Cc1cccc(Oc2cnc(Cl)cc2C(=O)NC(CON)Cc2ccc(C)cc2C)c1` (stereo not shown) [4-07], the LogP was 3.37^[a]. Still for that read-out and setting: in the case of `Cc1ccc(CC2CON=C(c3cc(Cl)ncc3Oc3cccc(C4CC4)c3)N2)c(C)c1` (racemic) [Compound I-013] it was 4.89^[a]. With `Cc1ccc(CC2CON=C(c3cc(Cl)ncc3Oc3cccc(-c4ccccn4)c3)N2)c(C)c1` (racemic) [Compound I-089], the LogP was 3.87^[a]. In the case of `Cc1ccc(CC(CON)NC(=O)c2cc(Cl)ncc2Oc2cccc(Cl)c2)c(C)c1` (stereo not shown) [4-12], the LogP is 3.35^[a]. The same measure, in the same setting: in the case of `COC(=O)c1cc(C(C)=O)ncc1Oc1cccc(C(F)(F)F)c1` [Compound 1-04] it was 3.59^[a]; in that of `Cc1ccc(CC2CON=C(c3cc(C)ncc3Oc3cccc(Cl)c3)N2)c(C)c1` (racemic) [Compound I-018], 3.76^[a]; in that of `Cc1cccc(C2CON=C(c3cc(Cl)ncc3Oc3cccc(C(F)(F)F)c3)N2)c1C` (stereo not shown) [Compound I-157], 4.23^[a]. With `Cc1ccc(CC2CON=C(c3cc(C#N)ncc3Oc3cccc(C(F)(F)F)c3)N2)cc1` (racemic) [Compound I-057], the LogP was 4.12^[a]. The same measure, in the same setting: to `CSc1c(Cl)ncc(Oc2cccc(C(F)(F)F)c2)c1C1=NOCC(Cc2ccc(C)cc2C)N1` (racemic) [Compound I-121] belongs 4.67^[a]; to `Clc1ccc(CC2CON=C(c3cc(Cl)ncc3Br)N2)c(Cl)c1` (stereo not shown) [7-04], 3.45^[a]; to `COc1cccc(Oc2cnc(Cl)cc2C2=NOCC(Cc3ccc(C)cc3C)N2)c1F` (stereo not shown) [Compound I-147], 4.06^[a]. The same measure, in the same setting: to `Clc1cc(C2=NOCC(Cc3ccc(Br)cc3Cl)N2)c(Oc2cccc(C3CC3)c2)cn1` (racemic) [Compound I-026] belongs 5.16^[a].

With `Clc1ccc(CC2CON=C(c3cc(Cl)ncc3Oc3ccc4c(c3)CCO4)N2)c(Cl)c1` (stereo not shown) [Compound I-130], the LogP was 4.30^[a]. Consider `Cc1ccc(CC2CON=C(c3cc(Cl)ncc3Oc3cccc(Cl)c3)N2)c(C)c1` (single isomer, unassigned) [Compound I-011], for which the LogP was 4.53^[a]. On the same count and under the same terms, in the case of `COc1cccc(Oc2cnc(C)cc2C2=NOCC(Cc3ccc(C)cc3C)N2)c1` (racemic) [Compound I-009] it was 3.29^[a].

Take `COc1cc(C(=O)NC(CCl)Cc2ccc(C)cc2C)c(Oc2cccc(C(F)(F)F)c2)cn1` (stereo not shown) [14-05]: the LogP is 5.26^[a]. In the case of `NOCC(Cc1ccc(Cl)cc1Cl)NC(=O)c1cc(Cl)ncc1Oc1cccc(C2CC2)c1F` (stereo not shown) [4-04], the LogP is 3.96^[a]. The same measure, in the same setting: to `Cc1ccc(CC2CON=C(c3cc(Cl)ncc3Oc3ccc4ccccc4c3)N2)c(C)c1` (racemic) [Compound I-086] belongs 4.77^[a]; to `FC(F)(F)Oc1cccc(Oc2cnc(Cl)cc2C2=NOCC(Cc3ccc(Cl)cc3Cl)N2)c1` (stereo not shown) [Compound I-148], 4.88^[a]; to `Cc1ccc(CC2CON=C(c3cc(Cl)ncc3Oc3cccc(C(F)(F)F)c3)N2)cc1` (racemic) [Compound I-110], 4.31^[a].

Consider `CCc1cccc(Oc2cnc(Cl)cc2C2=NOCC(Cc3ccc(C)cc3C)N2)c1` (racemic) [Compound I-092], for which the LogP was 5.04^[a]. On the same count and under the same terms, to `CC(=O)c1cc(C(=O)O)c(Oc2cccc(C(F)(F)F)c2)cn1` [Compound 1-02] belongs 2.54^[a]. The same measure, in the same setting: to `O=C(NC(CON1C(=O)c2ccccc2C1=O)Cc1ccc(Br)cc1Cl)c1cc(Cl)ncc1Oc1cccc(C2CC2)c1F` (stereo not shown) [3-05] belongs 5.62^[a]. On the same count and under the same terms, in the case of `Cc1ccc(Cl)c(CC2CON=C(c3cc(Cl)ncc3Oc3cccc(Cl)c3F)N2)c1` (racemic) [Compound I-118] it was 4.52^[a]; in that of `COc1cccc(Oc2cnc(Cl)cc2C(=O)NC(CON)Cc2ccc(C)cc2C)c1` (stereo not shown) [4-09], 3.08^[a].

Regarding `FC(F)(F)c1cccc(Oc2cnc(Cl)cc2C2=NOC(C3CC3)C(c3ccc(Cl)cc3)N2)c1` (mixture of isomers) [Compound I-139], the LogP was 4.47^[a]. The same measure, in the same setting: to `COC(=O)Cc1cccc(Oc2cnc(Cl)cc2C2=NOCC(Cc3ccc(C)cc3C)N2)c1` (racemic) [Compound I-078] belongs 4.08^[a]; to `Cc1ccc(CC(CON2C(=O)c3ccccc3C2=O)NC(=O)c2cc(Cl)ncc2Oc2cccc(C(F)F)c2)c(C)c1` (stereo not shown) [3-11], 4.69^[a]; to `Cc1ccc(CC2CON=C(c3cc(Cl)ncc3Oc3ccc4c(c3)OC(F)(F)O4)N2)c(C)c1` (racemic) [Compound I-114], 4.65^[a]. With `Cc1ccc(CC2CON=C(c3cc(Cl)ncc3Oc3cnc4c(c3)CCC4)N2)c(C)c1` (stereo not shown) [Compound I-140], the LogP is 3.17^[a]. Same read-out and setting: to `Cc1ccc(CC2CON=C(c3c(Oc4cccc(C(F)(F)F)c4)cnc(Cl)c3I)N2)c(C)c1` (stereo not shown) [Compound I-077] belongs 4.66^[a].

On to `Cc1ccc(CC(CON)NC(=O)c2cc(Cl)ncc2Br)c(C)c1` (stereo not shown) [Compound 6-01], for which the LogP was 2.20^[a]. Same read-out and setting: to `NOCC(Cc1ccc(Cl)cc1Cl)NC(=O)c1cc(Cl)ncc1Oc1cccc(C2CC2)c1` (stereo not shown) [4-03] belongs 4.06^[a]. Same read-out and setting: to `Cc1ccc(CC2CON=C(c3cc(Cl)ncc3Oc3cccc(Cl)c3)N2)c(C)c1` (racemic) [Compound I-002] belongs 4.51^[a].

With `FC(F)(F)c1cccc(Oc2cnc(Cl)cc2C2=NOCCC(c3ccc(Cl)cc3)N2)c1` (racemic) [Compound I-108], the LogP was 2.12^[a]. Same read-out and setting: in the case of `Cc1ccc(CC2CON=C(c3cc(C)ncc3Oc3cccc(C4CC4)c3)N2)c(Cl)c1` (racemic) [Compound I-030] it was 3.98^[a]. Still for that read-out and setting: in the case of `Cc1ccc(CC(CCl)NC(=O)c2cc(Cl)ncc2Br)c(Cl)c1` (stereo not shown) [17-02] it was 3.94^[a]; in that of `Cc1ccc(CC(CCl)NC(=NO)c2cc(Cl)ncc2Br)c(Cl)c1` (stereo not shown) [18-02], 3.85^[a]; in that of `Cc1ccc(CC2CON=C(c3cc(Cl)ncc3Oc3cccc(C=O)c3)N2)c(C)c1` (racemic) [Compound I-085], 3.64^[a].

As for `COCCOc1cccc(Oc2cnc(Cl)cc2C2=NOCC(Cc3ccc(C)cc3C)N2)c1` (racemic) [Compound I-126], the LogP was 4.15^[a]. Still for that read-out and setting: to `CCC1ON=C(c2cc(Cl)ncc2Oc2cccc(C(F)(F)F)c2)NC1c1ccc(OC)cc1` (mixture of isomers) [Compound I-122] belongs 4.07^[a].

The same data set, now with this note: Table 7, compounds of formula (3); method [a].
`Cc1ccc(CC(CON2C(=O)c3ccccc3C2=O)NC(=O)c2cc(Cl)ncc2Oc2cccc(C(F)(F)F)c2)c(C)c1` (racemic) [Compound 3-01, 2-chloro-N-{(2RS)-1-(2,4-dimethylphenyl)-3-[(1,3-dioxo-1,3-dihydro-2H-isoindol-2-yl)oxy]propan-2-yl}-5-[3-(trifluoromethyl)phenoxy]isonicotinamide] showed a chromatographic logP of 5.14.

Staying with this data set, now noted: Table 11, compounds of formula (6); method [a]: LC-UV, acidic range, 0.1% formic acid in water and acetonitrile.
With `Cc1ccc(CC(CON2C(=O)c3ccccc3C2=O)NC(=O)c2cc(C(F)(F)F)ncc2Br)c(C)c1` (racemic) [Compound 6-04, 5-bromo-N-{(2RS)-1-(2,4-dimethylphenyl)-3-[(1,3-dioxo-1,3-dihydro-2H-isoindol-2-yl)oxy]propan-2-yl}-2-(trifluoromethyl)isonicotinamide], the chromatographic logP worked out at 4.4.

Still in this data set, the particulars now being: Table 13, compounds of formula (7); method [a].
`Cc1ccc(CC2CON=C(c3cc(C(F)(F)F)ncc3Br)N2)c(C)c1` (racemic) [Compound 7-03, (5RS)-3-[5-bromo-2-(trifluoromethyl)pyridin-4-yl]-5-(2,4-dimethylbenzyl)-5,6-dihydro-4H-1,2,4-oxadiazine] showed a chromatographic logP of 2.43.

The same data set, now with this note: Table 15, compounds of formula (9); method [a]: LC-UV, acidic range, 0.1% formic acid in water and acetonitrile.
Turning to `N#Cc1cc(Cl)ncc1Oc1cccc(C(F)(F)F)c1` [Compound 9-01, 2-chloro-5-[3-(trifluoromethyl)phenoxy]isonicotinonitrile], the chromatographic logP stood at 3.77.

In general, chromatographic logP refers to lipophilicity estimated from chromatographic retention. A high value points to higher lipophilicity.

Values taken from patent US12534456B2, “Heterocyclyl pyridines as novel fungicides” (Bayer Aktiengesellschaft, priority 2020, dated 2026).
